Laboratory results published in patent US11377442B2, “Small molecule agonists and antagonists of NR2F6 activity” (ZANDER THERAPEUTICS, INC., priority 2016, dated 2022).
Like-named read-outs stand apart in the source and are kept apart here.

Key:
NR2F6 = target: T1, NR2F6 (Homo sapiens, UniProt P10588); assay: NR2F6 agonist screening, Firefly signal cmpd/DMSO; format: cell-based
T1 construct: expressed in transfected cells; also transient transfection
T1 sequence (P10588 1-404): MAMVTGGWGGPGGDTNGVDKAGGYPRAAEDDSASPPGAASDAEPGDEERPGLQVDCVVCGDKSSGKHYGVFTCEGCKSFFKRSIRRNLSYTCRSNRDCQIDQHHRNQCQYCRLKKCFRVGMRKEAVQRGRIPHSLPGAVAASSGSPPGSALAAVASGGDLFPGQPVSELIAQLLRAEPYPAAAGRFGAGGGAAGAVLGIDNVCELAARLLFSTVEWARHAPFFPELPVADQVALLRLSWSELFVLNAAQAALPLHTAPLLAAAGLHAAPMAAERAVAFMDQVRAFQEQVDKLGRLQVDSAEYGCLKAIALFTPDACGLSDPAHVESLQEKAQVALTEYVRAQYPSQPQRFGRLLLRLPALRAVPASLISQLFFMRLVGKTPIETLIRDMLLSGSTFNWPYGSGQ

Renilla [1] = assay: Renilla signal in NR2F6 agonist screening, cmpd/DMSO; format: cell-based; conditions: Renilla
HEK293 pGL4 = assay: Firefly_pGL signal, cmpd/DMSO (pGL4 control cells); format: cell-based; conditions: Homo sapiens
NR2F6 LBD = target: T2, NR2F6 LBD (Homo sapiens, UniProt P10588); assay: NR2F6 LBD transient transfection; format: cell-based
T2 construct: expressed in transfected cells
T2 sequence (P10588 165-393 limits assumed): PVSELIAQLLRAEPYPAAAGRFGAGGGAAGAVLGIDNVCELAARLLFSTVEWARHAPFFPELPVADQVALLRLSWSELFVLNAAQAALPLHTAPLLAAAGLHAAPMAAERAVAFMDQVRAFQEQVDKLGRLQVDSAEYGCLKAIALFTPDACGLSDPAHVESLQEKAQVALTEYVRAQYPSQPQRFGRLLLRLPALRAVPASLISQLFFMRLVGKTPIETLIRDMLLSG
Outline: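 LBD-transfected cells treated at 40, 10, 2 and 0.5 μM (4 replicates); cytotoxicity measured in parallel, normalized to DMSO (0%) and zero signal (100%). Higher concentrations excluded where signal loss reflected toxicity.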

P-gp (MDR1) = target: T3, P-gp (MDR1) (Homo sapiens, UniProt P08183); assay: Caco-2 asymmetry, P-gp substrate; format: in vitro ADME
T3 construct: endogenous in cells; host or cells: Caco-2
Procedure: A Caco-2 permeability assay was performed on Compound D136.

Renilla [2] = assay: Renilla signal, LBD, cmpd/DMSO (NR2F6 LBD transfected cells); format: cell-based
[3] = read-out: Renilla F4, cmpd/DMSO (mean)
[4] = F4, 1% FBS, read-out: Renilla, F4, 1% FBS, cmpd/DMSO (mean)
[5] = F4, 10% FBS, read-out: Renilla, F4, 10% FBS, cmpd/DMSO (mean)

T3 sequence (P08183 whole entry): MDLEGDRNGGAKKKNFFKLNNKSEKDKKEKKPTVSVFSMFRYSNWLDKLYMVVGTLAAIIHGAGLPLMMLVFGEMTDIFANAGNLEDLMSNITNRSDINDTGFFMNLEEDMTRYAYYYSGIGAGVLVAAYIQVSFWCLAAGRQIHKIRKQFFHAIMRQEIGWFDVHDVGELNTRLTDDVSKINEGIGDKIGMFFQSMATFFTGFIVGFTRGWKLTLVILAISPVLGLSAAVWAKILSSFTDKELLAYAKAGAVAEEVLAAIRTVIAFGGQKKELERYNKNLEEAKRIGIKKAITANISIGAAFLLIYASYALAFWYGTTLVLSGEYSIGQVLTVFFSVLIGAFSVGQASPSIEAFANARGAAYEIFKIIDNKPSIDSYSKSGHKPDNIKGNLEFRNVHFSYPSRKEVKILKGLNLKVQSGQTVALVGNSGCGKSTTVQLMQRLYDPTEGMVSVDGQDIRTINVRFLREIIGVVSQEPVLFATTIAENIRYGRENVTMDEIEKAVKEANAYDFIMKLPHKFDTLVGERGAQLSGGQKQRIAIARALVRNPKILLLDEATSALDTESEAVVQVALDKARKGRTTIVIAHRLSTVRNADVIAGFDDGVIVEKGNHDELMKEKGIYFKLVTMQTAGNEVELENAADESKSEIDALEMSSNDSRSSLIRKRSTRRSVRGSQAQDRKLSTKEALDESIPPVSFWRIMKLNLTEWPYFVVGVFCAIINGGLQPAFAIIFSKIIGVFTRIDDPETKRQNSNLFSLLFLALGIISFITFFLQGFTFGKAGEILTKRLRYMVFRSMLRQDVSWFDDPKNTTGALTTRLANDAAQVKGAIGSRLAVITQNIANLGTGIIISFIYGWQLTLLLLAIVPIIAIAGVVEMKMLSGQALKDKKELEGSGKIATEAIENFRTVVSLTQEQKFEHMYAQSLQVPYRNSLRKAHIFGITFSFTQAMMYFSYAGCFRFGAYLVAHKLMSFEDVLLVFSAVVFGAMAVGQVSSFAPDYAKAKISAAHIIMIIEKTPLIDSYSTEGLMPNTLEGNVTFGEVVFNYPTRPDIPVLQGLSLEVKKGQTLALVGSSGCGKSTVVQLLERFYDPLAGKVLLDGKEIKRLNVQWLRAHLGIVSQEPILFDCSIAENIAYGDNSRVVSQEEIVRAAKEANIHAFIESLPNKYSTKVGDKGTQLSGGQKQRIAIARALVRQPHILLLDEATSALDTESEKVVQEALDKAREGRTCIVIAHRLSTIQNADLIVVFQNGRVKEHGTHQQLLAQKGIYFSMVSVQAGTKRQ

COCCN[C@H]1CS(=O)(=O)C[C@@H]1S(=O)(=O)c1ccc(Cl)cc1 [Compound D136]
Firefly F4, cmpd/DMSO (mean) (NR2F6; 0.5 uM): 1.5
Firefly F4, cmpd/DMSO (mean) (NR2F6; 2 uM): 1.1
Firefly F4, cmpd/DMSO (mean) (NR2F6; 10 uM): 2.7
Firefly F4, cmpd/DMSO (mean) (NR2F6; 40 uM): 5.2
F4, Firefly/Renilla for S/B(F4) > 3 (NR2F6; 1% FBS, 40 uM): 3.1
Firefly, F4/pGL4 for S/B(F4) > 3 (NR2F6; 1% FBS, 40 uM): 4.7
F4, Firefly/Renilla for S/B(F4) > 3 (NR2F6; 10% FBS, 40 uM): 3.5
Firefly, F4/pGL4 for S/B(F4) > 3 (NR2F6; 10% FBS, 40 uM): 3.0
Firefly, F4, 1% FBS, cmpd/DMSO (mean) (NR2F6; 1% FBS, 0.5 uM): 0.8
Firefly, F4, 1% FBS, cmpd/DMSO (mean) (NR2F6; 1% FBS, 2 uM): 1.0
Firefly, F4, 1% FBS, cmpd/DMSO (mean) (NR2F6; 1% FBS, 10 uM): 2.4
Firefly, F4, 1% FBS, cmpd/DMSO (mean) (NR2F6; 1% FBS, 40 uM): 7.4
Firefly, F4, 10% FBS, cmpd/DMSO (mean) (NR2F6; 10% FBS, 0.5 uM): 0.4
Firefly, F4, 10% FBS, cmpd/DMSO (mean) (NR2F6; 10% FBS, 2 uM): 1.4
Firefly, F4, 10% FBS, cmpd/DMSO (mean) (NR2F6; 10% FBS, 10 uM): 1.9
Firefly, F4, 10% FBS, cmpd/DMSO (mean) (NR2F6; 10% FBS, 40 uM): 12
activation of full-length NR2F6 (NR2F6; cellular assays): Activates
fold induction at 0.5 µM (Renilla [1]; [3]): 0.9
fold induction at 2 µM (Renilla [1]; [3]): 1.1
fold induction at 10 µM (Renilla [1]; [3]): 1.4
fold induction at 40 µM (Renilla [1]; [3]): 1.7
fold induction at 0.5 µM (Renilla [1]; [4]): 1.1
fold induction at 2 µM (Renilla [1]; [4]): 1.1
fold induction at 10 µM (Renilla [1]; [4]): 1.5
fold induction at 40 µM (Renilla [1]; [4]): 2.4
fold induction at 0.5 µM (Renilla [1]; [5]): 0.9
fold induction at 2 µM (Renilla [1]; [5]): 0.9
fold induction at 10 µM (Renilla [1]; [5]): 1.2
fold induction at 40 µM (Renilla [1]; [5]): 3.3
fold induction at 0.5 µM (HEK293 pGL4; HEK293, 0.5 uM, read-out: Firefly pGL4, cmpd/DMSO (mean)): 1.1
fold induction at 2 µM (HEK293 pGL4; HEK293, 2 uM, read-out: Firefly pGL4, cmpd/DMSO (mean)): 1
fold induction at 10 µM (HEK293 pGL4; HEK293, 10 uM, read-out: Firefly pGL4, cmpd/DMSO (mean)): 1.8
fold induction at 40 µM (HEK293 pGL4; HEK293, 40 uM, read-out: Firefly pGL4, cmpd/DMSO (mean)): 2.6
fold induction at 0.5 µM (HEK293 pGL4; HEK293, pGL4, 1% FBS, 0.5 uM, read-out: Firefly, pGL4, 1% FBS, cmpd/DMSO (mean)): 1.1
fold induction at 2 µM (HEK293 pGL4; HEK293, pGL4, 1% FBS, 2 uM, read-out: Firefly, pGL4, 1% FBS, cmpd/DMSO (mean)): 0.9
fold induction at 10 µM (HEK293 pGL4; HEK293, pGL4, 1% FBS, 10 uM, read-out: Firefly, pGL4, 1% FBS, cmpd/DMSO (mean)): 1.3
fold induction at 40 µM (HEK293 pGL4; HEK293, pGL4, 1% FBS, 40 uM, read-out: Firefly, pGL4, 1% FBS, cmpd/DMSO (mean)): 1.6
fold induction at 0.5 µM (HEK293 pGL4; HEK293, pGL4, 10% FBS, 0.5 uM, read-out: Firefly, pGL4, 10% FBS, cmpd/DMSO (mean)): 1.3
fold induction at 2 µM (HEK293 pGL4; HEK293, pGL4, 10% FBS, 2 uM, read-out: Firefly, pGL4, 10% FBS, cmpd/DMSO (mean)): 1.1
fold induction at 10 µM (HEK293 pGL4; HEK293, pGL4, 10% FBS, 10 uM, read-out: Firefly, pGL4, 10% FBS, cmpd/DMSO (mean)): 1.8
fold induction at 40 µM (HEK293 pGL4; HEK293, pGL4, 10% FBS, 40 uM, read-out: Firefly, pGL4, 10% FBS, cmpd/DMSO (mean)): 3.8
Firefly LBD, cmpd/DMSO (mean) (NR2F6 LBD; 0.5 uM): 1.0
Firefly LBD, cmpd/DMSO (mean) (NR2F6 LBD; 2 uM): 1.5
Firefly LBD, cmpd/DMSO (mean) (NR2F6 LBD; 10 uM): 2.6
Firefly LBD, cmpd/DMSO (mean) (NR2F6 LBD; 40 uM): 2.9
activation of ligand binding domain-only NR2F6 (NR2F6 LBD; cellular assays): Activates
substrate for P-gp (MDR1) (P-gp (MDR1); Caco-2 asymmetry): not a substrate
efflux ratio (P-gp (MDR1); human, Caco-2, Mean Papp B-A / A-B, read-out: Asymmetry Index): 1.5
Renilla LBD, cmpd/DMSO (mean) (Renilla [2]; 0.5 uM): 1.1
Renilla LBD, cmpd/DMSO (mean) (Renilla [2]; 2 uM): 1.0
Renilla LBD, cmpd/DMSO (mean) (Renilla [2]; 10 uM): 1.0
Renilla LBD, cmpd/DMSO (mean) (Renilla [2]; 40 uM): 0.6
